{"source": "patent US20140315738A1", "about": "“MARINE MEDAKA GENES RESPONDING TO THE EXPOSURE OF ENDOCRINE-DISRUPTING CHEMICALS, AND METHOD FOR DIAGNOSING AN AQUATIC ECO-SYSTEM CONTAMINATION USING SAME” (priority 2011, published 2014)", "tested_on": "Javanese medaka (Oryzias javanicus) livers", "test": "real-time quantitative PCR of liver gene expression after exposure to 17β-estradiol", "assay_type": "in vivo", "conditions": "duration of exposure 24 hr, 100 μg/L, β-actin control gene", "protocol": "To 3 L beaker with 2 L filtered seawater therein, 10 male Javanese medaka bred in culture water tank were transported each time, and acclimated for 24 hr. […] Additionally, five Javanese medaka of Example <1-1> were exposed to BPA (76 μg/L) for 48 hr. […] The Javanese medaka was transported to ice water, one at a time, which momentarily stunned it, followed by beheading and evisceration and liver removal.\nPrimers for real-time quantitative PCR (RT-PCR) for the above genes were designed and synthesized (Table 3).\nWith RNA template extracted with the method of Example <2-1>, cDNA was synthesized using AB High Capacity RNA-to-cDNA Kit (Applied Biosystems, USA). RNA in the amount of 1 μg was seeded, added with distilled water and titrated to 9 μl. 2×RT buffer (10 μl), and 20× enzyme Mix 1 μl were mixed well, centrifuged and precipitated, and allowed to react at 37° C. for 60 min. The reactant was heated at 95° C. for 5 min, after which reaction was completed. The synthesized cDNA was stored at −20° C.\nTo the 0.5 μg synthesized cDNA (corresponding to approximately 10 ng/μl), 0.8 primer pairs of corresponding genes (10 pmol/μl), and 2 SYBR1 mixture (10 μl) were added. The final amount was titrated to 20 μl using distilled water. At temperature condition of 95° C. 10 min, 95° C. 30 sec, 60° C. 30 sec, 72° C. 30 sec, 40 cycles of PCR were conducted.", "data": [{"smiles": "C[C@]12CC[C@@H]3c4ccc(O)cc4CC[C@H]3[C@@H]1CC[C@@H]2O", "note": "[17β-estradiol]", "values": [{"measurement": "Difference of expression level, Apolipoprotein B (SEQ ID 53)", "value": 2.5, "unit": "times lower"}, {"measurement": "Difference of expression level, Cytochrome P450 1A (CYP1A) (SEQ ID 5)", "value": 2.7, "unit": "times lower"}, {"measurement": "Difference of expression level, Glucose-6-phosphate dehydrogenase (SEQ ID 55)", "value": 2.2, "unit": "times lower"}, {"measurement": "Difference of expression level, Glutamate dehydrogenase 1b (SEQ ID 54)", "value": 5.2, "unit": "times lower"}, {"measurement": "Difference of expression level, Selenoprotein M (SEQ ID 8)", "value": 7.7, "unit": "times higher"}, {"measurement": "Difference of expression level, Transferrin (SEQ ID 56)", "value": 3.6, "unit": "times lower"}, {"measurement": "Difference of expression level, Vitellogenin 1 (SEQ ID 37)", "value": 59.1, "unit": "times higher"}]}]}
